Literature values in patent US8895729B2, “Process for making thienopyrimidine compounds” (Genentech, Inc., priority 2012, dated 2014).

Legend:
[1] = test system: MCF7-neo/HER2 cell line
[2] = not given; remark: listed apart in the source
[3] = test system: receptor screening assay (n=68); conditions: GDC-0980=10 microM
[4] = single oral dose
[5] = test system: PC3 PTEN-prostate xenograft; conditions: mouse PC3 PTEN- prostate xenograft; 25 to 150 mg/kg qd po
[6] = test system: MCF7.1 E545K breast xenograft; conditions: mouse MCF7.1 E545K breast xenograft; 25 to 150 mg/kg qd po
[7] = test system: MDA-MB-361.1 breast cancer xenograft
[8] = test system: xenograft cancer models; breast, ovarian, lung, and prostate

For `Cc1c(CN2CCN(C(=O)[C@H](C)O)CC2)sc2c(N3CCOCC3)nc(-c3cnc(N)nc3)nc12` [GDC-0980, (S)-1-(4-((2-(2-aminopyrimidin-5-yl)-7-methyl-4-morpholinothieno[3,2-d]pyrimidin-6-yl)methyl)piperazin-1-yl)-2-hydroxypropan-1-one], the IC50 [1] is given as 320 nM, the “stability in human microsomes” value is given as “stable” and the “stability in human hepatocytes” value [2] is given as “stable”. The “responses in a receptor screening assay” value [3] was “did not elicit significant responses”, the AUC dose dependence [4] was “dose-proportional increases” and the Cmax dose dependence [4] was “dose-proportional increases”. The “efficacy in xenograft model” value [5] was “efficacious”, the “efficacy in xenograft model” value [6] was “efficacious” and the “minimum dose producing significant growth inhibition” value [7] was 1.0 mg/kg QD. The “activity in preclinical xenograft cancer models” value [8] was “broad activity”.
